According to patent publication US20220162182A1, “KINASE INHIBITOR COMPOUNDS AND COMPOSITIONS AND METHODS OF USE” (ICAHN SCHOOL OF MEDICINE AT MOUNT SINAI, priority 2018, published 2022):
“And” between values parts separate entries of the source, which are not always exact repeats. Identical values can stand only once. Counter-ions that a name gives are not always drawn.

Key:
DYRK1A = target: T1, DYRK1A (Homo sapiens, UniProt Q13627); assay: KINOMEscan DYRK1A binding assay (DiscoverX), Kd determination; details: eleven serial three fold dilutions, highest concentration 60 μM, several values in a cell = repeat determinations
T1 construct: purchased DiscoverX
Experimental: Compounds were tested for DYRK1A binding activity at DiscoverX. DiscoverX uses proprietary KINOMEscan® Assay (Fabian et al., “A Small Molecule-kinase Interaction Map for Clinical Kinase Inhibitors,” Nat. Biotechnol. 23(3):329-336 (2005), which is hereby incorporated by reference in its entirety). Compounds were screened for DYRK1A activity at a single concentration of 3 μM in duplicates. Similarly, the dissociation constant Kd of the hit compounds from the initial screening was determined at DiscoverX using their proprietary KINOMEscan® Assay. Kd values are determined using eleven serial three fold dilutions with the highest concentration of 60 μM.

DYRK1/DYRK1A = target: T2, DYRK1/DYRK1A (Homo sapiens, UniProt Q13627); assay: DYRK1/DYRK1A IC50 assay (Reaction Biology Corp.); format: biochemical; details: DYRK1/DYRK1A assay from Reaction Biology Corp.
T2 construct: purchased Reaction Biology Corp

Row | Kd (DYRK1A) | IC50 (DYRK1/DYRK1A) | SMILES
1 | 1200 nM |  | O=c1[nH]c2ccc(-c3cncc(NCc4ccc(-c5ccccc5)cc4)c3)cc2[nH]1 [Compound 30h, 5-(5-(([1,1′-Biphenyl]-4-ylmethyl)amino)pyridin-3-yl)-1H-benzo[d]imidazol-2(3H)-one]
2 |  | 38 nM | COCCOc1ccc(-n2c(=O)[nH]c3ccc(-c4cncc(NCc5ccccc5)c4)cc32)cc1 [Compound 61k, 6-(5-(Benzylamino)pyridin-3-yl)-1-(4-(2-methoxyethoxy)phenyl)-1H-benzo[d]imidazol-2(3H)-one]
3 | 6000 nM |  | O=c1[nH]c2ccc(-c3ccc(NCc4ccc(F)cc4)cn3)cc2[nH]1 [Compound 11c, 5-(5-((4-Fluorobenzyl)amino)pyridin-2-yl)-1H-benzo[d]imidazol-2(3H)-one]
4 | 0.82 nM and 1.6 nM |  | Cn1c(=O)[nH]c2ccc(-c3cncc(NCc4ccccc4)c3)cc21 [Compound 12b, 6-(5-(Benzylamino)pyridin-3-yl)-1-methyl-1H-benzo[d]imidazol-2(3H)-one]
5 | 2.1 nM |  | O=c1[nH]c2ccc(-c3cncc(NCc4cccnc4)c3)cc2[nH]1 [Compound 31b, 5-(5-((Pyridin-3-ylmethyl)amino)pyridin-3-yl)-1H-benzo[d]imidazol-2(3H)-one]
6 |  | 2.2 nM | COc1ccc(NCc2cncc(-c3ccc4[nH]c(=O)[nH]c4c3)c2)cc1 [Compound 52i, 5-(5-(((4-Methoxyphenyl)amino)methyl)pyridin-3-yl)-1H-benzo[d]imidazol-2(3H)-one]
7 |  | 24 nM | O=c1[nH]c2ccc(-c3cncc(NCc4ccccc4)c3)cc2n1C1CCCC1 [Compound 61d, 6-(5-(Benzylamino)pyridin-3-yl)-1-cyclopentyl-1H-benzo[d]imidazol-2(3H)-one]
8 | 2.9 nM and 1.8 nM |  | O=c1[nH]c2ccc(-c3cncc(NCc4ccc(F)cc4)c3)cc2[nH]1 [Compound 13b, 5-(5-((4-Fluorobenzyl)amino)pyridin-3-yl)-1H-benzo[d]imidazol-2(3H)-one]
9 |  | 2100 nM | Cc1ncc(NCc2ccccc2)cc1-c1ccc2[nH]c(=O)[nH]c2c1 [Compound 74a, 5-(5-(Benzylamino)-2-methylpyridin-3-yl)-1H-benzo[d]imidazol-2(3H)-one]
10 |  | 0.286 nM | C[C@H](Nc1cncc(-c2ccc3[nH]c(=O)n(C)c3c2)c1)c1ccccc1 [Compound 69c]
11 |  | 4.03 nM | O=c1[nH]c2ccc(-c3cncc(NCc4ncco4)c3)cc2[nH]1 [Compound 49f, 5-(5-((Oxazol-2-ylmethyl)amino)pyridin-3-yl)-1H-benzo[d]imidazol-2(3H)-one]
12 | 5.8 nM |  | N#Cc1cccc(CNc2cncc(-c3ccc4[nH]c(=O)[nH]c4c3)c2)c1 [Compound 30f, 3-(((5-(2-Oxo-2,3-dihydro-1H-benzo[d]imidazol-5-yl)pyridin-3-yl)amino)methyl)benzonitrile]
13 | 1.2 nM |  | O=c1[nH]c2ccc(-c3cncc(NCc4ccccc4F)c3)cc2[nH]1 [Compound 30a, 5-(5-((2-Fluorobenzyl)amino)pyridin-3-yl)-1H-benzo[d]imidazol-2(3H)-one]
14 | 100 nM |  | O=c1[nH]c2ccc(-c3cncc(NCc4ccc5ccccc5c4)c3)cc2[nH]1 [Compound 31e, 5-(5-((Naphthalen-2-ylmethyl)amino)pyridin-3-yl)-1H-benzo[d]imidazol-2(3H)-one]
15 |  | 0.48 nM | O=c1[nH]c2ccc(-c3cncc(NCc4cccs4)c3)cc2[nH]1 [Compound 49b, 5-(5-((Thiophen-2-ylmethyl)amino)pyridin-3-yl)-1H-benzo[d]imidazol-2(3H)-one]
16 |  | 45.2 nM | O=c1[nH]c2ccc(-c3cc(NCc4ccccc4)c[n+]([O-])c3)cc2[nH]1 [Compound 69b, 3-(Benzylamino)-5-(2-oxo-2,3-dihydro-1H-benzo[d]imidazol-5-yl)pyridine 1-oxide]
17 |  | 3.8 nM | O=c1[nH]c2ccc(-c3cncc(NCc4ccccc4)c3)cc2n1-c1ccccc1 [Compound 61e, 6-(5-(Benzylamino)pyridin-3-yl)-1-phenyl-1H-benzo[d]imidazol-2(3H)-one]
18 |  | 3.67 nM | O=c1[nH]c2ccc(-c3cncc(CNc4ccccc4F)c3)cc2[nH]1 [Compound 52a, 5-(5-(((2-Fluorophenyl)amino)methyl)pyridin-3-yl)-1H-benzo[d]imidazol-2(3H)-one]
19 |  | 6.47 nM | O=c1[nH]c2ccc(-c3cncc(NCc4ccccc4)c3)cc2n1-c1cccnc1 [Compound 61g, 6-(5-(Benzylamino)pyridin-3-yl)-1-(pyridin-3-yl)-1H-benzo[d]imidazol-2(3H)-one]
20 |  | 2.72 nM | COc1ccccc1NCc1cncc(-c2ccc3[nH]c(=O)[nH]c3c2)c1 [Compound 52g, 5-(5-(((2-Methoxyphenyl)amino)methyl)pyridin-3-yl)-1H-benzo[d]imidazol-2(3H)-one]

Row | Kd (DYRK1A) | IC50 (DYRK1/DYRK1A) | SMILES
21 |  | 1.41 nM | CCn1c(=O)[nH]c2ccc(-c3cncc(NCc4ccccc4)c3)cc21 [Compound 61a, 6-(5-(Benzylamino)pyridin-3-yl)-1-ethyl-1H-benzo[d]imidazol-2(3H)-one]
22 |  | 7.12 nM | NCCOc1cccc(-n2c(=O)[nH]c3ccc(-c4cncc(NCc5ccccc5)c4)cc32)c1 [Compound 61n, 1-(3-(2-Aminoethoxy)phenyl)-6-(5-(benzylamino)pyridin-3-yl)-1H-benzo[d]imidazol-2(3H)-one hydrochloride]
23 |  | 5.05 nM | O=c1[nH]c2ccc(-c3cncc(CNc4ccccc4Cl)c3)cc2[nH]1 [Compound 52d, 5-(5-(((2-Chlorophenyl)amino)methyl)pyridin-3-yl)-1H-benzo[d]imidazol-2(3H)-one]
24 |  | 2.26 nM | COc1cccc(NCc2cncc(-c3ccc4[nH]c(=O)[nH]c4c3)c2)c1 [Compound 52h, 5-(5-(((3-Methoxyphenyl)amino)methyl)pyridin-3-yl)-1H-benzo[d]imidazol-2(3H)-one]
25 |  | 3.9 nM | NCCOCCOc1cccc(-n2c(=O)[nH]c3ccc(-c4cncc(NCc5ccccc5)c4)cc32)c1 [Compound 61o, 1-(3-(2-(2-Aminoethoxy)ethoxy)phenyl)-6-(5-(benzylamino)pyridin-3-yl)-1H-benzo[d]imidazol-2(3H)-one hydrochloride]
26 |  | 99.9 nM | Cn1c(=O)[nH]c2ccc(-c3cc(NCc4ccccc4)c[n+]([O-])c3)cc21 [Compound 69a, 3-(Benzylamino)-5-(3-methyl-2-oxo-2,3-dihydro-1H-benzo[d]imidazol-5-yl)pyridine 1-oxide]
27 |  | 3.47 nM | COCCOc1cccc(-n2c(=O)[nH]c3ccc(-c4cncc(NCc5ccccc5)c4)cc32)c1 [Compound 61j, 6-(5-(Benzylamino)pyridin-3-yl)-1-(3-(2-methoxyethoxy)phenyl)-1H-benzo[d]imidazol-2(3H)-one]
28 |  | 4.91 nM | O=c1[nH]c2ccc(-c3cncc(NCc4ncc[nH]4)c3)cc2[nH]1 [Compound 49c, 5-(5-(((1H-Imidazol-2-yl)methyl)amino)pyridin-3-yl)-1H-benzo[d]imidazol-2(3H)-one]
29 |  | 3.25 nM | O=c1[nH]c2ccc(-c3cncc(NCc4ccccc4)c3)cc2n1C1CC1 [Compound 61c, 6-(5-(Benzylamino)pyridin-3-yl)-1-cyclopropyl-1H-benzo[d]imidazol-2(3H)-one]
30 |  | 42.8 nM | CC(C)(C)OC(=O)NCCOCCOc1cccc(-n2c(=O)[nH]c3ccc(-c4cncc(NCc5ccccc5)c4)cc32)c1 [Compound 61m, tert-Butyl (2-(2-(3-(6-(5-(benzylamino)pyridin-3-yl)-2-oxo-2,3-dihydro-1H-benzo[d]imidazol-1-yl)phenoxy)ethoxy)ethyl)carbamate]
31 |  | 103 nM | CC(C)(C)OC(=O)NCCOc1cccc(-n2c(=O)[nH]c3ccc(-c4cncc(NCc5ccccc5)c4)cc32)c1 [Compound 611, tert-Butyl (2-(3-(6-(5-(benzylamino)pyridin-3-yl)-2-oxo-2,3-dihydro-1H-benzo[d]imidazol-1-yl)phenoxy)ethyl)carbamate]
32 |  | 3.27 nM | O=c1[nH]c2ccc(-c3cncc(NCc4cc[nH]n4)c3)cc2[nH]1 [Compound 49e, 5-(5-(((1H-Pyrazol-3-yl)methyl)amino)pyridin-3-yl)-1H-benzo[d]imidazol-2(3H)-one]
33 |  | 1.31 nM | O=c1[nH]c2ccc(-c3cncc(CNc4cccc(F)c4)c3)cc2[nH]1 [Compound 52b, 5-(5-(((3-Fluorophenyl)amino)methyl)pyridin-3-yl)-1H-benzo[d]imidazol-2(3H)-one]
34 |  | 13.8 nM | CC(C)n1c(=O)[nH]c2ccc(-c3cncc(NCc4ccccc4)c3)cc21 [Compound 61b, 6-(5-(Benzylamino)pyridin-3-yl)-1-isopropyl-1H-benzo[d]imidazol-2(3H)-one]
35 |  | 1690 nM | O=c1[nH]c2ccc(-c3cnccc3NCc3ccccc3)cc2[nH]1 [Compound 74c, 5-(4-(Benzylamino)pyridin-3-yl)-1H-benzo[d]imidazol-2(3H)-one]
36 |  | 6.11 nM | O=c1[nH]c2ccc(-c3cncc(CNc4ccc(F)cc4)c3)cc2[nH]1 [Compound 52c, 5-(5-(((4-Fluorophenyl)amino)methyl)pyridin-3-yl)-1H-benzo[d]imidazol-2(3H)-one]
37 |  | 1.74 nM | O=c1[nH]c2ccc(-c3cncc(NCc4ccco4)c3)cc2[nH]1 [Compound 49a, 5-(5-((Furan-2-ylmethyl)amino)pyridin-3-yl)-1H-benzo[d]imidazol-2(3H)-one]
38 |  | 8580 nM | O=c1[nH]c2ccc(-c3ccncc3NCc3ccccc3)cc2[nH]1 [Compound 74b, 5-(3-(Benzylamino)pyridin-4-yl)-1H-benzo[d]imidazol-2(3H)-one]
39 |  | 0.52 nM | O=c1[nH]c2ccc(-c3cncc(NCc4ccccc4)c3)cc2n1-c1ccccn1 [Compound 61f, 6-(5-(Benzylamino)pyridin-3-yl)-1-(pyridin-2-yl)-1H-benzo[d]imidazol-2(3H)-one]
